According to patent publication US20150239889A1, “PYRAZOLOPYRIMIDINE COMPOUND” (MITSUBISHI TANABE PHARMA CORPORATION, priority 2012, published 2015):

biological target: T1, human HIF-PHD2 (Homo sapiens, UniProt Q9GZT9); experiment: HIF-PHD inhibition assay (fluorescence polarization), human HIF-PHD2; assay type: biochemical; settings: 2-oxoglutaric acid 3.33 μmol/L
T1 construct: purchased CrystalGenomics Ltd
Procedure, shortened: (§1)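 Activity was derived as the fluorescence polarization (mP) after enzyme addition minus that measured before enzyme addition. Probe bore a 5′-fluoresceinamide (FAM) label with an aminocaproic acid (ACA) linker.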

T1 sequence (Q9GZT9 2-426 limits assumed): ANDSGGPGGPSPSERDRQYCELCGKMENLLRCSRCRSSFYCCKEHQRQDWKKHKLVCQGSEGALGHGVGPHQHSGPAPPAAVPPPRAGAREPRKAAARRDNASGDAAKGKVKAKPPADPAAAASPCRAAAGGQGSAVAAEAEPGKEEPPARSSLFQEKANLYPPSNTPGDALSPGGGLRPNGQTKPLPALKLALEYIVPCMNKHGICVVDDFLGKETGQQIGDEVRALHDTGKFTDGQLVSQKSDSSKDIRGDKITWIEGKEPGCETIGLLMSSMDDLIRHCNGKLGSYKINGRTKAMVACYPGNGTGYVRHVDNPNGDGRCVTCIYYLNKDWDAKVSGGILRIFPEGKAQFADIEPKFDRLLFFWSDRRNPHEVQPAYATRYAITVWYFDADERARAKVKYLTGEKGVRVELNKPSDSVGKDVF

SMILES | IC50 [nM]
C[C@H](c1ccc(-c2ccccc2F)cc1)n1ncc2nc(-n3cc(C(=O)O)cn3)nc(O)c21 [Example 111] | 25
CCCC(C)(C)Cn1ncc2nc(-n3cc(C(=O)O)cn3)nc(O)c21 [Example 493] | 86
O=C(O)c1cnn(-c2nc(O)c3c(cnn3C[C@H]3CC[C@H](Oc4ccc(F)cc4)CC3)n2)c1 [Example 149] | 17
O=C(O)c1cnn(-c2nc(O)c3c(cnn3CCOc3ccccc3)n2)c1 [Example 200] | 12
O=C(O)c1cnn(-c2nc(O)c3[nH]ncc3n2)c1 [Example 484] | 35
O=C(O)c1cnn(-c2nc(O)c3c(cnn3C[C@H]3CC[C@H](Oc4cccc(F)c4)CC3)n2)c1 [Example 148] | 10
COc1cc(Cn2ncc3nc(-n4cc(C(=O)O)cn4)nc(O)c32)ccc1-c1c(F)cccc1F [Example 97] | 34
CC(C)(C)[C@H]1CC[C@H](Cn2ncc3nc(-n4cc(C(=O)O)cn4)nc(O)c32)CC1 [Example 142] | 25
O=C(O)c1cnn(-c2nc(O)c3c(cnn3CCCOc3cc(C(F)(F)F)cc(C(F)(F)F)c3)n2)c1 [Example 183] | 63
O=C(O)c1cnn(-c2nc(O)c3nn(CCc4ccc5ccccc5c4)cc3n2)c1 [Example 243] | 57
O=C(O)c1cnn(-c2nc(O)c3c(cnn3Cc3c(F)cc(-c4ccccc4)cc3F)n2)c1 [Example 79] | 16
COc1ccc(Cn2ncc3nc(-n4cc(C(=O)O)cn4)nc(O)c32)cc1 [Example 3] | 31
C[C@@H](c1ccc(F)cc1)n1ncc2nc(-n3cc(C(=O)O)cn3)nc(O)c21 [Example 18] | 35
CC(C)(Cn1ncc2nc(-n3cc(C(=O)O)cn3)nc(O)c21)Oc1cccc2ccccc12 [Example 212] | 26
O=C(O)c1cnn(-c2nc(O)c3c(cnn3CC[C@H]3CC[C@H](c4ccccc4)CC3)n2)c1 [Example 163] | 19
CC[C@@H](c1ccccc1)n1ncc2nc(-n3cc(C(=O)O)cn3)nc(O)c21 [Example 24] | 44
O=C(O)c1cnn(-c2nc(O)c3c(cnn3CCC3Cc4ccccc4C3)n2)c1 [Example 164] | 21
O=C(O)c1cnn(-c2nc(O)c3c(cnn3CCC3CCOCC3)n2)c1 [Example 153] | 59
O=C(O)c1cnn(-c2nc(O)c3c(n2)c(F)nn3Cc2ccc3ccccc3c2)c1 [Example 216] | 15
O=C(O)c1cnn(-c2nc(O)c3c(cnn3Cc3ccc4cc(F)ccc4c3)n2)c1 [Example 32] | 14
C[C@@H](C1CCCCC1)n1ncc2nc(-n3cc(C(=O)O)cn3)nc(O)c21 [Example 144] | 15
CC(C)(Cc1ccc2ccccc2c1)Cn1ncc2nc(-n3cc(C(=O)O)cn3)nc(O)c21 [Example 133] | 110
Cc1ccc(Cn2ncc3nc(-n4cc(C(=O)O)cn4)nc(O)c32)cc1-c1ccccc1 [Example 53] | 25
O=C(O)c1cnn(-c2nc(O)c3c(cnn3Cc3cccc(-c4cccc(C(F)(F)F)c4)c3)n2)c1 [Example 45] | 50
O=C(O)c1cnn(-c2nc(O)c3c(n2)c(F)nn3CC2CCC3(CCC3)CC2)c1 [Example 467] | 15
O=C(O)c1cnn(-c2nc(O)c3c(cnn3Cc3ccc(F)c(-c4ccccc4)c3)n2)c1 [Example 51] | 34

biological target: T2, human HIF-PHD3 (Homo sapiens, UniProt Q9H6Z9); experiment: HIF-PHD inhibition assay (fluorescence polarization), human HIF-PHD3; assay type: biochemical; settings: 2-oxoglutaric acid 166 μmol/L
T2 construct: purchased CrystalGenomics Ltd
T2 sequence (Q9H6Z9 whole entry): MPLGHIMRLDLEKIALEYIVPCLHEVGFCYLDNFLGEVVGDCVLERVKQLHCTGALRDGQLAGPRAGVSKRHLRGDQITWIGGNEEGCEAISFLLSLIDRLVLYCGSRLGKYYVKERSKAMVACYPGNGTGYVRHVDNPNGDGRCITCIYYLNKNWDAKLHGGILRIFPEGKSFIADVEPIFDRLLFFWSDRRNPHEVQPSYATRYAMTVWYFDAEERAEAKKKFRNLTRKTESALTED
Procedure, shortened: as §1

SMILES | IC50 [nM]
C[C@H](c1ccc(-c2ccccc2F)cc1)n1ncc2nc(-n3cc(C(=O)O)cn3)nc(O)c21 [Example 111] | > 1000
CCCC(C)(C)Cn1ncc2nc(-n3cc(C(=O)O)cn3)nc(O)c21 [Example 493] | 550
O=C(O)c1cnn(-c2nc(O)c3c(cnn3C[C@H]3CC[C@H](Oc4ccc(F)cc4)CC3)n2)c1 [Example 149] | 54
O=C(O)c1cnn(-c2nc(O)c3c(cnn3CCOc3ccccc3)n2)c1 [Example 200] | 1800
O=C(O)c1cnn(-c2nc(O)c3[nH]ncc3n2)c1 [Example 484] | > 1000
O=C(O)c1cnn(-c2nc(O)c3c(cnn3C[C@H]3CC[C@H](Oc4cccc(F)c4)CC3)n2)c1 [Example 148] | 250
COc1cc(Cn2ncc3nc(-n4cc(C(=O)O)cn4)nc(O)c32)ccc1-c1c(F)cccc1F [Example 97] | 300
CC(C)(C)[C@H]1CC[C@H](Cn2ncc3nc(-n4cc(C(=O)O)cn4)nc(O)c32)CC1 [Example 142] | 360
O=C(O)c1cnn(-c2nc(O)c3c(cnn3CCCOc3cc(C(F)(F)F)cc(C(F)(F)F)c3)n2)c1 [Example 183] | 340
O=C(O)c1cnn(-c2nc(O)c3nn(CCc4ccc5ccccc5c4)cc3n2)c1 [Example 243] | 260
O=C(O)c1cnn(-c2nc(O)c3c(cnn3Cc3c(F)cc(-c4ccccc4)cc3F)n2)c1 [Example 79] | 200
COc1ccc(Cn2ncc3nc(-n4cc(C(=O)O)cn4)nc(O)c32)cc1 [Example 3] | 160
C[C@@H](c1ccc(F)cc1)n1ncc2nc(-n3cc(C(=O)O)cn3)nc(O)c21 [Example 18] | 450
CC(C)(Cn1ncc2nc(-n3cc(C(=O)O)cn3)nc(O)c21)Oc1cccc2ccccc12 [Example 212] | 310
O=C(O)c1cnn(-c2nc(O)c3c(cnn3CC[C@H]3CC[C@H](c4ccccc4)CC3)n2)c1 [Example 163] | 120
CC[C@@H](c1ccccc1)n1ncc2nc(-n3cc(C(=O)O)cn3)nc(O)c21 [Example 24] | 990
O=C(O)c1cnn(-c2nc(O)c3c(cnn3CCC3Cc4ccccc4C3)n2)c1 [Example 164] | 210
O=C(O)c1cnn(-c2nc(O)c3c(cnn3CCC3CCOCC3)n2)c1 [Example 153] | 900
O=C(O)c1cnn(-c2nc(O)c3c(n2)c(F)nn3Cc2ccc3ccccc3c2)c1 [Example 216] | 300
O=C(O)c1cnn(-c2nc(O)c3c(cnn3Cc3ccc4cc(F)ccc4c3)n2)c1 [Example 32] | 320
C[C@@H](C1CCCCC1)n1ncc2nc(-n3cc(C(=O)O)cn3)nc(O)c21 [Example 144] | 1300
CC(C)(Cc1ccc2ccccc2c1)Cn1ncc2nc(-n3cc(C(=O)O)cn3)nc(O)c21 [Example 133] | 370
Cc1ccc(Cn2ncc3nc(-n4cc(C(=O)O)cn4)nc(O)c32)cc1-c1ccccc1 [Example 53] | 410
O=C(O)c1cnn(-c2nc(O)c3c(cnn3Cc3cccc(-c4cccc(C(F)(F)F)c4)c3)n2)c1 [Example 45] | 170
O=C(O)c1cnn(-c2nc(O)c3c(n2)c(F)nn3CC2CCC3(CCC3)CC2)c1 [Example 467] | 270
O=C(O)c1cnn(-c2nc(O)c3c(cnn3Cc3ccc(F)c(-c4ccccc4)c3)n2)c1 [Example 51] | 190

tested on: Hep3B cells; experiment: EPO production assay (ELISA of culture supernatant); assay type: cell-based; settings: Homo sapiens, 3 μmol/L test compound, 48 hours, relative to control (0.1% DMSO), read-out: EPO production stimulation rate with 3 μmol/L test compound
Procedure, shortened: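 Hep3B cells (40000/well) switched to MEM with 0.5% FBS and treated with compound (0.1% DMSO) for 48 h at 37 °C. Supernatant EPO measured by ELISA; value is fold stimulation at 3 μmol/L compound over unstimulated control.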

SMILES | fold induction at 3 µM
C[C@H](c1ccc(-c2ccccc2F)cc1)n1ncc2nc(-n3cc(C(=O)O)cn3)nc(O)c21 [Example 111] | 36
CCCC(C)(C)Cn1ncc2nc(-n3cc(C(=O)O)cn3)nc(O)c21 [Example 493] | 2.8
O=C(O)c1cnn(-c2nc(O)c3c(cnn3C[C@H]3CC[C@H](Oc4ccc(F)cc4)CC3)n2)c1 [Example 149] | 22
O=C(O)c1cnn(-c2nc(O)c3c(cnn3CCOc3ccccc3)n2)c1 [Example 200] | 1.4
O=C(O)c1cnn(-c2nc(O)c3[nH]ncc3n2)c1 [Example 484] | 1.6
O=C(O)c1cnn(-c2nc(O)c3c(cnn3C[C@H]3CC[C@H](Oc4cccc(F)c4)CC3)n2)c1 [Example 148] | 11
COc1cc(Cn2ncc3nc(-n4cc(C(=O)O)cn4)nc(O)c32)ccc1-c1c(F)cccc1F [Example 97] | 5.2
CC(C)(C)[C@H]1CC[C@H](Cn2ncc3nc(-n4cc(C(=O)O)cn4)nc(O)c32)CC1 [Example 142] | 15
O=C(O)c1cnn(-c2nc(O)c3c(cnn3CCCOc3cc(C(F)(F)F)cc(C(F)(F)F)c3)n2)c1 [Example 183] | 7.5
O=C(O)c1cnn(-c2nc(O)c3nn(CCc4ccc5ccccc5c4)cc3n2)c1 [Example 243] | 1.6
O=C(O)c1cnn(-c2nc(O)c3c(cnn3Cc3c(F)cc(-c4ccccc4)cc3F)n2)c1 [Example 79] | 14
COc1ccc(Cn2ncc3nc(-n4cc(C(=O)O)cn4)nc(O)c32)cc1 [Example 3] | 2.1
C[C@@H](c1ccc(F)cc1)n1ncc2nc(-n3cc(C(=O)O)cn3)nc(O)c21 [Example 18] | 5.6
CC(C)(Cn1ncc2nc(-n3cc(C(=O)O)cn3)nc(O)c21)Oc1cccc2ccccc12 [Example 212] | 2.7
O=C(O)c1cnn(-c2nc(O)c3c(cnn3CC[C@H]3CC[C@H](c4ccccc4)CC3)n2)c1 [Example 163] | 13
CC[C@@H](c1ccccc1)n1ncc2nc(-n3cc(C(=O)O)cn3)nc(O)c21 [Example 24] | 2.8
O=C(O)c1cnn(-c2nc(O)c3c(cnn3CCC3Cc4ccccc4C3)n2)c1 [Example 164] | 8.8
O=C(O)c1cnn(-c2nc(O)c3c(cnn3CCC3CCOCC3)n2)c1 [Example 153] | 1.5
O=C(O)c1cnn(-c2nc(O)c3c(n2)c(F)nn3Cc2ccc3ccccc3c2)c1 [Example 216] | 1.5
O=C(O)c1cnn(-c2nc(O)c3c(cnn3Cc3ccc4cc(F)ccc4c3)n2)c1 [Example 32] | 5.7
C[C@@H](C1CCCCC1)n1ncc2nc(-n3cc(C(=O)O)cn3)nc(O)c21 [Example 144] | 4.3
CC(C)(Cc1ccc2ccccc2c1)Cn1ncc2nc(-n3cc(C(=O)O)cn3)nc(O)c21 [Example 133] | 3.9
Cc1ccc(Cn2ncc3nc(-n4cc(C(=O)O)cn4)nc(O)c32)cc1-c1ccccc1 [Example 53] | 3.3
O=C(O)c1cnn(-c2nc(O)c3c(cnn3Cc3cccc(-c4cccc(C(F)(F)F)c4)c3)n2)c1 [Example 45] | 8.9
O=C(O)c1cnn(-c2nc(O)c3c(n2)c(F)nn3CC2CCC3(CCC3)CC2)c1 [Example 467] | 3.2
O=C(O)c1cnn(-c2nc(O)c3c(cnn3Cc3ccc(F)c(-c4ccccc4)c3)n2)c1 [Example 51] | 3.9
